In ChEMBL document CHEMBL4359816, “Discovery and Optimization of Quinolinone Derivatives as Potent, Selective, and Orally Bioavailable Mutant Isocitrate Dehydrogenase 1 (mIDH1) Inhibitors” (J Med Chem, 2019):

Tests used:
[1] = Total AUC (infinity) in rat at 1 mg/kg, iv or 5 mg/kg, po; assay type: ADME, organism-based; settings: in vivo
[2] = Free drug concentration in plasma of po dosed BALB/c nude mouse xenografted with human HCT116 harboring R132C mutant administered at 12 hrs intervals and measured after 4 to 24 hrs post last dose; assay type: ADME, organism-based; settings: in vivo
Cytochrome P450 3A4 [3] = target: T1, Cytochrome P450 3A4 (Homo sapiens, UniProt P08684); assay: Time dependent inhibition of CYP3A4 (unknown origin) at <5 uM pre-incubated for 30 mins followed by testosterone substrate addition in presence of NADPH; assay type: ADME
[4] = target: T2, Isocitrate dehydrogenase [NADP] cytoplasmic (Homo sapiens, UniProt O75874, R132C); assay: Inhibition of IDH1 R132C mutant in human HCT116 cells assessed as reduction in 2-HG levels after 24 hrs by RapidFire high-throughput mass spectrometry assay; assay type: cell-based
[5] = Apparent permeability of the compound across basolateral side to apical side in human Caco2 cells; assay type: ADME, cell-based; settings: Caco-2
[6] = target: ATP-dependent translocase ABCB1 (Homo sapiens, UniProt P08183); assay: Substrate activity at Pgp (unknown origin) assessed as net efflux ratio by measuring ratio of efflux ratio in MDCK cells harboring MDR1 (unknown origin) to efflux ratio in MDCK cells; assay type: ADME, cell-based
[7] = Oral bioavailability in rat at 5 mg/kg; assay type: ADME, organism-based; settings: in vivo
[8] = Half-life in rat at 1 mg/kg, iv or 5 mg/kg, po; assay type: ADME, organism-based; settings: in vivo
MDR1 (P-gp) [9] = assay: Apparent permeability from basolateral side to apical side in MDCK cells harboring MDR1 (unknown origin); assay type: ADME, cell-based, Canis lupus familiaris; settings: dog
Cytochrome P450 3A4 [10] = target: T1, Cytochrome P450 3A4; assay: Time dependent inhibition of CYP3A4 (unknown origin) at <5 uM pre-incubated for 30 mins followed by midazolam substrate addition in absence of NADPH; assay type: ADME
CYP3A4 = CYP3A4 (Homo sapiens, UniProt P08684); assay: Inhibition of CYP3A4 (unknown origin) at 10 uM relative to control; assay type: ADME
[11] = Apparent permeability from basolateral side to apical side in MDCK cells; assay type: ADME, cell-based, Canis lupus familiaris; settings: dog
[12] = target: Isocitrate dehydrogenase [NADP] cytoplasmic (Homo sapiens, UniProt O75874, R132S); assay: Inhibition of human Myc-DDK-tagged IDH1 R132S mutant expressed in human U87MG cells assessed as reduction in 2-HG levels after 24 hrs by RapidFire high-throughput mass spectrometry assay; assay type: cell-based
[13] = target: T2, Isocitrate dehydrogenase [NADP] cytoplasmic; assay: Inhibition of human Myc-DDK-tagged IDH1 R132C mutant expressed in human U87MG cells assessed as reduction in 2-HG levels after 24 hrs by RapidFire high-throughput mass spectrometry assay; assay type: cell-based
Mus musculus [14] = assay type: functional; settings: BALB/c, HCT-116, po
[15] = Total AUC (infinity) in dog at 0.5 mg/kg, iv; assay type: ADME, organism-based, Canis lupus familiaris; set-up: dose 0.5 mg/kg, time AUCmax, route intravenous; settings: in vivo
[16] = Metabolic stability in rat liver microsomes assessed as compound remaining after 30 mins; assay type: ADME, Microsome; settings: read-out: Stability
[17] = Clearance in dog at 0.5 mg/kg, iv; assay type: ADME, organism-based, Canis lupus familiaris; settings: in vivo
[18] = Oral bioavailability in mouse at 5 mg/kg; assay type: ADME, organism-based; settings: in vivo
[19] = Metabolic stability in human liver microsomes assessed as compound remaining after 30 mins; assay type: ADME, Microsome; settings: read-out: Stability
[20] = Protein binding in mouse plasma assessed as unbound fraction; assay type: ADME, cell-free
[21] = Free drug concentration in tumor of human HCT116 harboring R132C mutant xenografted in po dosed BALB/c nude mouse administered at 12 hrs intervals and measured after 4 to 24 hrs post last dose; assay type: ADME, organism-based, Neoplasm; settings: in vivo
[22] = Octanol/aqueous buffer partition coefficient, log D of the compound at pH 7.4; assay type: physicochemical
[23] = target: T2, Isocitrate dehydrogenase [NADP] cytoplasmic; assay: Inhibition of human Myc-DDK-tagged IDH1 R132C mutant assessed as reduction in NADPH consumption pre-incubated for 15 mins followed by alpha-ketoglutarate substrate and NADPH addition after 45 mins by diaphorase and resazurin dye based assay
[24] = Efflux ratio of apparent permeability from basolateral side to apical side over apical side to basolateral side in human Caco2 cells; assay type: ADME, cell-based; settings: Caco-2
[25] = Half-life in mouse at 1 mg/kg, iv or 5 mg/kg, po; assay type: ADME, organism-based; settings: in vivo
Mus musculus [26] = assay type: functional, BALB/c
[27] = Protein binding in mouse plasma; assay type: ADME, cell-free; settings: read-out: PPB (converted)
CYP2C19 = CYP2C19 (Homo sapiens, UniProt P33261); assay: Inhibition of CYP2C19 (unknown origin) at 10 uM relative to control; assay type: ADME
[28] = Cmax in rat at 1 mg/kg, iv or 5 mg/kg, po; assay type: ADME, organism-based; settings: in vivo
MDR1 (P-gp) [29] = assay: Efflux ratio of apparent permeability from basolateral side to apical side over apical side to basolateral side in MDCK cells harboring MDR1 (unknown origin); assay type: ADME, cell-based, Canis lupus familiaris; settings: dog
[30] = Half-life in human hepatocytes; assay type: ADME, cell-based, Hepatocyte
Mus musculus [31] = assay type: functional; settings: BALB/c, HCT-116, po; remark: listed apart in the source
PXR = PXR (Homo sapiens, UniProt O75469); assay: Activation of PXR (unknown origin) stably expressed in human HepG2 cells at 10 uM relative to rifampicin; assay type: ADME, cell-based; settings: HepG2 cells stably expressing PXR, read-out: Activity
[32] = fAUC (infinity) in dog at 0.5 mg/kg, iv; assay type: ADME, organism-based, Canis lupus familiaris; settings: in vivo
[33] = Apparent permeability from apical side to basolateral side in MDCK cells; assay type: ADME, cell-based, Canis lupus familiaris; settings: dog
MDR1 (P-gp) [34] = assay: Apparent permeability from apical side to basolateral side in MDCK cells harboring MDR1 (unknown origin); assay type: ADME, cell-based, Canis lupus familiaris; settings: dog
CYP1A2 = CYP1A2 (Homo sapiens, UniProt P05177); assay: Inhibition of CYP1A2 (unknown origin) at 10 uM relative to control; assay type: ADME
[35] = Protein binding in human plasma; assay type: ADME, cell-free; settings: read-out: PPB (converted)
Cytochrome P450 3A4 [36] = target: T1, Cytochrome P450 3A4; assay: Time dependent inhibition of CYP3A4 (unknown origin) at <5 uM pre-incubated for 30 mins followed by testosterone substrate addition in absence of NADPH; assay type: ADME
[37] = target: Isocitrate dehydrogenase [NADP] cytoplasmic (Homo sapiens, UniProt O75874, R132L); assay: Inhibition of human Myc-DDK-tagged IDH1 R132L mutant expressed in human U87MG cells assessed as reduction in 2-HG levels after 24 hrs by RapidFire high-throughput mass spectrometry assay; assay type: cell-based
[38] = target: Isocitrate dehydrogenase [NADP] cytoplasmic (Homo sapiens, UniProt O75874, R132G); assay: Inhibition of human Myc-DDK-tagged IDH1 R132G mutant expressed in human U87MG cells assessed as reduction in 2-HG levels after 24 hrs by RapidFire high-throughput mass spectrometry assay; assay type: cell-based
[39] = Total AUC (infinity) in mouse at 1 mg/kg, iv or 5 mg/kg, po; assay type: ADME, organism-based; settings: in vivo
CYP2C9 = CYP2C9 (Homo sapiens, UniProt P11712); assay: Inhibition of CYP2C9 (unknown origin) at 10 uM relative to control; assay type: ADME
[40] = Clearance in rat at 1 mg/kg, iv or 5 mg/kg, po; assay type: ADME, organism-based; settings: in vivo
[41] = Protein binding in rat plasma; assay type: ADME, cell-free; settings: read-out: PPB (converted)
[42] = target: NET (noradrenaline transporter) (Homo sapiens, UniProt P23975); assay: Displacement of [3H]nisoxetine from recombinant human NET receptor at 10 uM after 120 mins by scintillation counting method relative to control; settings: probe [3H]nisoxetine
[43] = Half-life in dog at 0.5 mg/kg, iv; assay type: ADME, organism-based, Canis lupus familiaris; settings: in vivo

T2 sequence (O75874 2-414 R132C limits assumed): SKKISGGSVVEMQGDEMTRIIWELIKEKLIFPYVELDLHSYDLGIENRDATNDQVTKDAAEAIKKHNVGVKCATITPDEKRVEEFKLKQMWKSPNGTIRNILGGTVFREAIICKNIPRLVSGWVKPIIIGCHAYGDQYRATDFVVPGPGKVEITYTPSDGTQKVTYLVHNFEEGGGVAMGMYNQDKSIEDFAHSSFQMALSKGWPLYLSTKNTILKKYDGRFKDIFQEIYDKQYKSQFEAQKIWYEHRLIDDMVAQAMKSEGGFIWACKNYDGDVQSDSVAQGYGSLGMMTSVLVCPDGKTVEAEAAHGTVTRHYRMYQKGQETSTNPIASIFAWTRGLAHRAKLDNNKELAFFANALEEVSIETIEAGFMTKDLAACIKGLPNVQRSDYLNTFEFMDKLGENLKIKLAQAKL
T1 sequence (P08684 whole entry): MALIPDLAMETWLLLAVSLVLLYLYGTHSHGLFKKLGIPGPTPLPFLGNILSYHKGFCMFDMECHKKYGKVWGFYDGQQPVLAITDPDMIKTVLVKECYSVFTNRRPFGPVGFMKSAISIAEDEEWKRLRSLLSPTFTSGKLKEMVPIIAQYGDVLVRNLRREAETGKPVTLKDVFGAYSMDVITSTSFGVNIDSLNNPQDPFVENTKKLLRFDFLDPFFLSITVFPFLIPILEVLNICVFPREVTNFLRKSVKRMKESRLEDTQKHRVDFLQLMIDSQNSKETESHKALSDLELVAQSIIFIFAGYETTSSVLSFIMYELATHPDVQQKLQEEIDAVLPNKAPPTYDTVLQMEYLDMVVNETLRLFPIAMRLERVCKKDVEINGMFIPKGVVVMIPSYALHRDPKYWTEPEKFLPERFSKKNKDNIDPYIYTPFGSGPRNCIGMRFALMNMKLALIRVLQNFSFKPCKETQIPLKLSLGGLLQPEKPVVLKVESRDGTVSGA
CYP2C9, sequence (P11712 whole entry): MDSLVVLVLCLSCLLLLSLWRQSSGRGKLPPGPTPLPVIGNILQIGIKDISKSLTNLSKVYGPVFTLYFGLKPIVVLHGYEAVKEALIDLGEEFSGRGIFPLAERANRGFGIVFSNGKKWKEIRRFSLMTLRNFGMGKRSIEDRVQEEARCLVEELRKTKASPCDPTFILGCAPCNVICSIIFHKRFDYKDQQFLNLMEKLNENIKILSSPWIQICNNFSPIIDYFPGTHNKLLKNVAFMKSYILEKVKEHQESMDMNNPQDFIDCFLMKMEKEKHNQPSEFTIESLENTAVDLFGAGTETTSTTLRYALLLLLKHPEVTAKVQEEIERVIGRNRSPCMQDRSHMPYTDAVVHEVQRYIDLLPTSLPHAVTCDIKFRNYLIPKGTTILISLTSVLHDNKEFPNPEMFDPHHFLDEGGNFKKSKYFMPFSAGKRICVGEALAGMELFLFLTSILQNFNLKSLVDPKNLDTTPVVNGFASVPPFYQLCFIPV
CYP1A2, sequence (P05177 whole entry): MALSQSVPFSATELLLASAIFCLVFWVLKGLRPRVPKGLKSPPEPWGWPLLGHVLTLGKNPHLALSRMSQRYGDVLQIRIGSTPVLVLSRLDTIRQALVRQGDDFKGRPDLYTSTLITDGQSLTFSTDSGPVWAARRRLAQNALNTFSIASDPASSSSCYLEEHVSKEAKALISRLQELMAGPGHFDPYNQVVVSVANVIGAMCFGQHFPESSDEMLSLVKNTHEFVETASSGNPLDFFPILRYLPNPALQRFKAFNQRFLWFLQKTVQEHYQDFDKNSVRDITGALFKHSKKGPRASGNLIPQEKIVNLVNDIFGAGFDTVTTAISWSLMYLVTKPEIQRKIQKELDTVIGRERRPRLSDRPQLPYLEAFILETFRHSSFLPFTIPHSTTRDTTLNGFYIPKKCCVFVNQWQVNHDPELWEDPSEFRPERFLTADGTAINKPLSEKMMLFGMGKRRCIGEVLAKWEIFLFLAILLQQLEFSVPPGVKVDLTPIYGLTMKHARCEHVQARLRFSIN
PXR, sequence (O75469 whole entry): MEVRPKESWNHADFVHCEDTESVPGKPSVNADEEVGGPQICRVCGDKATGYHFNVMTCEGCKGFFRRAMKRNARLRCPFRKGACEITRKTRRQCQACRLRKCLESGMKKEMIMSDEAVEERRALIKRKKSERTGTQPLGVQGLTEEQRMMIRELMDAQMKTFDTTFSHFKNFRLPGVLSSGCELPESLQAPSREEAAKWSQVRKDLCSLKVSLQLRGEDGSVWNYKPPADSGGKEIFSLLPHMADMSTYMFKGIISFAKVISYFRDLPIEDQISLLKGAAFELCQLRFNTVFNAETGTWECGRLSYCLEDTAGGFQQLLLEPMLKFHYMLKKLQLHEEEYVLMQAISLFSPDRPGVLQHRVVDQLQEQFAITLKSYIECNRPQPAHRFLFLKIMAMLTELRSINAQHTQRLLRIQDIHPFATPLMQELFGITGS
ATP-dependent translocase ABCB1, sequence (P08183 whole entry): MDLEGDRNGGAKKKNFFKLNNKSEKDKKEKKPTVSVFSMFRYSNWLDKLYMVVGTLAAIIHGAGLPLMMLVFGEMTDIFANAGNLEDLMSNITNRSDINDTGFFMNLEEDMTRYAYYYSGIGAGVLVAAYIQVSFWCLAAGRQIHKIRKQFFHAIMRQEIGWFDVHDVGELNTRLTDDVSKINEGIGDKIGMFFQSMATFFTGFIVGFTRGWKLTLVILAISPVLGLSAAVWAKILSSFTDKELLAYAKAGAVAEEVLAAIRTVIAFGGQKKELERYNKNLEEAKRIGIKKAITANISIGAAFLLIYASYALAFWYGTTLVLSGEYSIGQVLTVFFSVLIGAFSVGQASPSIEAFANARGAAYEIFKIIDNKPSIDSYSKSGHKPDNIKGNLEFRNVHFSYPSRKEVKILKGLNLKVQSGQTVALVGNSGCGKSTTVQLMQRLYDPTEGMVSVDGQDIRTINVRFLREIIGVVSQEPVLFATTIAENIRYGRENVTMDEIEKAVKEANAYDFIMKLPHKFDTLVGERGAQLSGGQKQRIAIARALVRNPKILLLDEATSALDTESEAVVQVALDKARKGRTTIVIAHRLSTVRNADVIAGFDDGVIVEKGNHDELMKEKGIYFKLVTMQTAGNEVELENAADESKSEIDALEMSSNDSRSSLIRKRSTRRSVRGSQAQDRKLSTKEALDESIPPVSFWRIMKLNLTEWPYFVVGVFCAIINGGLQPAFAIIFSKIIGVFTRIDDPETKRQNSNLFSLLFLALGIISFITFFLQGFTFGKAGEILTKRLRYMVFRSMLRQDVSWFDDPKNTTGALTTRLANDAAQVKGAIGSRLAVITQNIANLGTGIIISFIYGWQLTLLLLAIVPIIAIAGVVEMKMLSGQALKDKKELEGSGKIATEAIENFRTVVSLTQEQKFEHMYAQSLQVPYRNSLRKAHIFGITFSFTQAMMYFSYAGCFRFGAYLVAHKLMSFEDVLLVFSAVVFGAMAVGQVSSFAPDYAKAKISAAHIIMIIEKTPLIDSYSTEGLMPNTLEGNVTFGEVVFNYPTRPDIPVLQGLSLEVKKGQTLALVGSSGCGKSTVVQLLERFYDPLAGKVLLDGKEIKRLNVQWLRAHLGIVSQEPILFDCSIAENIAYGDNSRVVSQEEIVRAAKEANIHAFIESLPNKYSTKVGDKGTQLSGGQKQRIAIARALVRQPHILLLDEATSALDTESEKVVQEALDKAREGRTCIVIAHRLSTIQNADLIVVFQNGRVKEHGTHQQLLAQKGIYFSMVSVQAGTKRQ
NET (noradrenaline transporter), sequence (P23975 whole entry): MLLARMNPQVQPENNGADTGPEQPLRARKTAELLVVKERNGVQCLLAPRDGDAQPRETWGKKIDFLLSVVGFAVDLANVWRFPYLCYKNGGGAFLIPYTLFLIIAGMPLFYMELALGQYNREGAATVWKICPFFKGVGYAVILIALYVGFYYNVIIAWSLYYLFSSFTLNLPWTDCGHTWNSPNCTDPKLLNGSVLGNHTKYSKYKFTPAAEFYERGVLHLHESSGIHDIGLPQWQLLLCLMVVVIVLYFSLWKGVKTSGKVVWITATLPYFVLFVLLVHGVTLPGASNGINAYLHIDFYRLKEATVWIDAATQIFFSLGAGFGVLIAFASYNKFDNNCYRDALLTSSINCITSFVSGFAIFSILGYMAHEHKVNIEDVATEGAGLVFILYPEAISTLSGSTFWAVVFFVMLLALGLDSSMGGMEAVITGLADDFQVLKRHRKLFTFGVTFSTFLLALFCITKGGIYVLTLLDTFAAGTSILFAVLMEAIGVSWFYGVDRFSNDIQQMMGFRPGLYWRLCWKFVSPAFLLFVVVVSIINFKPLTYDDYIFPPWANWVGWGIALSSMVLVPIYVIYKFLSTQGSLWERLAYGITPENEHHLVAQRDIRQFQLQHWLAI
Isocitrate dehydrogenase [NADP] cytoplasmic (Homo sapiens, UniProt O75874, R132L), sequence (O75874 2-414 R132L limits assumed): as the sequence (O75874 2-414 R132C limits assumed) above, with C131L counted along it
CYP3A4, sequence (P08684 whole entry): as the sequence (P08684 whole entry) above
CYP2C19, sequence (P33261 whole entry): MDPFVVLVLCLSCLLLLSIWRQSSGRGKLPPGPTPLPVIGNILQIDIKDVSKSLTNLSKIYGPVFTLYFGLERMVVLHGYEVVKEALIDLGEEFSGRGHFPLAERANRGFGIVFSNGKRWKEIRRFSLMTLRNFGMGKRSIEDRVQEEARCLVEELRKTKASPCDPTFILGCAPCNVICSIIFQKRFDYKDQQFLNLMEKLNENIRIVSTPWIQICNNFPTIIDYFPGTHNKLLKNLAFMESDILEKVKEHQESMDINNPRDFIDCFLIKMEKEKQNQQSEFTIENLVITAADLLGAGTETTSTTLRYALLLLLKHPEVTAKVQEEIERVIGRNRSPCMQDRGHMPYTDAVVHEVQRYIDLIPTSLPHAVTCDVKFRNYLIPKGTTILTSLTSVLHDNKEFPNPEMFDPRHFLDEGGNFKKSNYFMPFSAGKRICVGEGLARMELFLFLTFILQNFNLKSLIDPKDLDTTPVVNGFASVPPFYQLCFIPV
Isocitrate dehydrogenase [NADP] cytoplasmic (Homo sapiens, UniProt O75874, R132G), sequence (O75874 2-414 R132G limits assumed): as the sequence (O75874 2-414 R132C limits assumed) above, with C131G counted along it
Isocitrate dehydrogenase [NADP] cytoplasmic (Homo sapiens, UniProt O75874, R132S), sequence (O75874 2-414 R132S limits assumed): as the sequence (O75874 2-414 R132C limits assumed) above, with C131S counted along it

In the case of `COc1nc(N[C@@H](C)c2cc3cc(Cl)ccc3[nH]c2=O)ncc1C#N`, the AUC(0-inf) [1] is reported as 22.6 µM·h, the “Drug uptake(free)” value [2] is reported as “Dose-dependent effect” and the TDI (Cytochrome P450 3A4 [3]) is reported as “Not Active”. The IC50 [4] was 233 nM, the Papp B→A [5] was 8.64 ×10⁻⁶ cm/s and the Ratio IC50 (Homo sapiens) was 200. It also gave a Ratio [6] of 1.89, a bioavailability [7] of 81% and a half-life [8] of 2.2 h. The Papp B→A (MDR1 (P-gp) [9]) was 9.93 ×10⁻⁶ cm/s, the TDI (Cytochrome P450 3A4 [10]) was “Not Active” and the inhibition at 10 µM (CYP3A4) was 15.4%. The Papp B→A [11] was 7.97 ×10⁻⁶ cm/s, the IC50 [12] was 1490 nM and the IC50 [13] was 130 nM. For the same molecule, the inhibition in vivo at 25 mg/kg (Mus musculus [14]) was greater than 90%, the AUC(0-inf) [15] was 3.3 µM·h and the remaining at 0.5 h [16] was 94 to 100%. For the same molecule, the clearance [17] was 7.7 mL/min/kg, the bioavailability [18] was 130% and the remaining at 0.5 h [19] was 100 to 108%. The fraction unbound [20] was 0.019, the “Drug uptake(free)” value [21] was “Dose-dependent effect” and the logD [22] was 2.68. For the same molecule, the IC50 [23] was 130 nM, the efflux ratio [24] was 1 and the half-life [25] was 10 h. It also gave a fIC50 (Mus musculus [26]) of 49 nM, a fraction unbound [27] of 0.0193 and an inhibition at 10 µM (CYP2C19) of 22.7%. The Cmax [28] was 3.8 µM, the efflux ratio (MDR1 (P-gp) [29]) was 1.19 and the half-life [30] was 4.32 h. For the same molecule, the inhibition in vivo at 12.5 mg/kg (Mus musculus [31]) was greater than 90%, the activity at 10 µM (PXR) was 15% and the fAUC [32] was 0.123 µM·h. The Papp A→B [33] was 12.6 ×10⁻⁶ cm/s, the Papp A→B (MDR1 (P-gp) [34]) was 8.35 ×10⁻⁶ cm/s and the inhibition at 10 µM (CYP1A2) was 35.4%. The fraction unbound [35] was 0.019, the TDI (Cytochrome P450 3A4 [36]) was “Not Active” and the IC50 [37] was 60 nM. The IC50 [38] was 120 nM, the AUC(0-inf) [39] was 107 µM·h and the inhibition at 10 µM (CYP2C9) was 13.6%. The clearance [40] was 8.6 mL/min/kg, the fraction unbound [41] was 0.0203 and the inhibition at 2 h, 10 µM [42] was greater than 50%. It also gave a half-life [43] of 5.2 h.
